The record followed here is PubChem BioAssay (NCI).

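Exposure lasted 48 hours, with cells grown in 96-well plates and compounds tested at five concentrations. Abbreviation: GI50, concentration required for 50% inhibition of growth. TGI: concentration producing complete growth inhibition.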

Test systems include 786-0 renal; A498 renal; DU-145 prostate; MDA-N; NCI-H23 lung; T-47D breast; DLD-1 colon; HCC-2998 colon; HOP-18 NSCLC; LXFL 529 NSCLC; M19-MEL melanoma; DMS 114 small cell lung; KM20L2 colon; P388 leukemia; SN12K1 renal; SNB-78 CNS; XF 498 CNS.
What all share (experiment): NCI tumour cell line growth inhibition, 48 h

In the case of `O=C(O)c1ccccc1CN1CCCC(C(=O)O)C1` (centres undefined), the TGI with 786-0 renal, in the assay on A498 renal, with DU-145 prostate, with MDA-N, in the assay on NCI-H23 lung and in the assay with T-47D breast was greater than 100 µM each time.

Take `CC(C)(C)[Si](C)(C)OCC1OC(n2cnc3c(N)ncnc32)C2OC(=S)OC12` (centres undefined): the TGI in the assay on A498 renal is greater than 100 µM; in the assay on DU-145 prostate, greater than 100 µM; with MDA-N, 94 µM; in the assay with NCI-H23 lung, 73.3 µM.

With `Nc1ccccc1N`, the TGI in the assay with 786-0 renal, in the assay with A498 renal, with DLD-1 colon, in the assay with HCC-2998 colon, with HOP-18 NSCLC and in the assay with LXFL 529 NSCLC was greater than 100 µM each time. Moreover, the TGI with M19-MEL melanoma and in the assay with NCI-H23 lung was greater than 100 µM in each case.

On to `CCOc1ccc(/C=C2\N=C(c3ccccc3)OC2=O)cc1`, for which the TGI in the assay on HCC-2998 colon and in the assay with NCI-H23 lung was greater than 100 µM each time.

For the compound `NCCCCCC(CCN)SCC1OC(n2cnc3c(N)ncnc32)C(O)C1O` (centres undefined), the TGI with A498 renal, with DLD-1 colon, in the assay with DMS 114 small cell lung, in the assay on HCC-2998 colon, in the assay with KM20L2 colon and in the assay with M19-MEL melanoma was greater than 1500 µM throughout. Besides, the TGI is greater than 1500 µM with NCI-H23 lung; greater than 1.5 mM in the assay with P388 leukemia; greater than 1.5 mM in the assay on SN12K1 renal; greater than 1500 µM in the assay with SNB-78 CNS; greater than 15 µM with XF 498 CNS.

Turning to `Cc1cccc2cc(/C=C/C(=O)/C=C/c3ccc(Cl)cc3)c(=O)[nH]c12`, in the assay with A498 renal, the GI50 is greater than 100 µM and the TGI was greater than 100 µM.

With `COc1ccc(-c2cc(N3CCN(c4ccc(Cl)cc4)CC3)c(C#N)c(=O)o2)cc1`, the TGI in the assay with A498 renal was 49.4 µM; in the assay with DLD-1 colon it was greater than 100 µM; in the assay with DMS 114 small cell lung it was 25.6 µM; in the assay with HCC-2998 colon, greater than 100 µM; with HOP-18 NSCLC, 44.3 µM; in the assay on KM20L2 colon, greater than 100 µM. The TGI in the assay on LXFL 529 NSCLC was found to be 70.5 µM; with NCI-H23 lung it was 88.1 µM; in the assay with SNB-78 CNS it was 34.2 µM; in the assay with XF 498 CNS, 7.76 µM.

For the compound `CN1C2CCC1/C(=C/c1cccc3c1OCO3)C(=O)/C2=C\c1cccc2c1OCO2`, the TGI with DLD-1 colon, in the assay with DMS 114 small cell lung, in the assay on HCC-2998 colon, with KM20L2 colon, in the assay with LXFL 529 NSCLC and in the assay on M19-MEL melanoma was greater than 100 µM throughout. For the same compound, the TGI in the assay with NCI-H23 lung and in the assay on XF 498 CNS was greater than 100 µM each time.

`COC(=O)/C=C1\SC2(OC1=Nc1ccccc1)C1CC3CC(C1)CC2C3` (centres undefined): the TGI in the assay on A498 renal and in the assay with MDA-N was greater than 100 µM throughout.

As for `CCOC(=O)CC1=N/C(=N/C(=N)N[N+](=O)[O-])SC1`, the TGI in the assay on 786-0 renal, in the assay on A498 renal, in the assay with DLD-1 colon, in the assay with HCC-2998 colon, with HOP-18 NSCLC and with KM20L2 colon was greater than 100 µM throughout. Further, the TGI in the assay with LXFL 529 NSCLC, in the assay with M19-MEL melanoma, in the assay with NCI-H23 lung and with SNB-78 CNS was greater than 100 µM in each case.

In the case of `Fc1ccc(Nc2nc(Cl)c3[nH]cnc3n2)cc1Cl`, the TGI in the assay with 786-0 renal, in the assay on A498 renal, in the assay on DU-145 prostate, in the assay with HCC-2998 colon, with MDA-N and in the assay on NCI-H23 lung was greater than 100 µM throughout. For the same compound, in the assay with T-47D breast, the TGI was greater than 100 µM.

Consider `NC(Cc1ccc(CP(=O)(O)O)cc1)C(=O)O` (centres undefined), for which the TGI in the assay with DU-145 prostate, in the assay on HCC-2998 colon, in the assay with MDA-N, in the assay on NCI-H23 lung and in the assay with T-47D breast was greater than 100 µM each time.

As for `C/C(=N/NC(=O)c1ccncc1)C(F)(F)F`, the TGI in the assay on A498 renal, with DU-145 prostate, in the assay on HCC-2998 colon, with NCI-H23 lung and with T-47D breast was greater than 100 µM each time.

As to `C=C=C[P+](c1ccccc1)(c1ccccc1)c1ccccc1`, the TGI in the assay with 786-0 renal was 17.7 µM; with A498 renal it was greater than 100 µM; in the assay on DLD-1 colon, greater than 100 µM; in the assay on DMS 114 small cell lung, 29.9 µM; in the assay on HCC-2998 colon, greater than 100 µM; with HOP-18 NSCLC, greater than 100 µM. Further, the TGI with LXFL 529 NSCLC worked out at 20.8 µM; in the assay on M19-MEL melanoma it was 91.9 µM; with SNB-78 CNS it was 86 µM.
